Laboratory results published in US11236052B2, “Aminobenzimidazole derivatives, treatments, and methods of inhibiting histone deacetylase” (TRANSLATIONAL DRUG DEVELOPMENT, LLC, priority 2017, dated 2022).
Like-named read-outs stand apart in the source and are kept apart here.

Columns and labels:
[1] = test system: MM1.S human myeloma cells; assay: Human MM1.S xenograft model, combination screening with pomalidomide/dexamethasone; format: in vivo, mice; details: 100 mg/kg daily for 19 days oral plus pomalidomide 10 mg/kg / dexamethasone 0.3 mg/kg; compared to ID #2 or ID #3 combinations
Description: Group 3 (G3) was treated with Compound ID #1 at 100 mg/kg daily for 19 days. Group 4 (G4) was treated with Compound ID #2 at 100 mg/kg daily for 19 days. Group 5 (G5) was treated with Compound ID #3 at 100 mg/kg daily for 19 days. […] Vehicle and Compound ID #1, Compound ID #2 and Compound ID #3 were administered orally via oral gavage. Body weights and tumor measurements were collected twice weekly.

% PPB, mouse = format: in vitro ADME; details: plasma; mouse (m)
GIST882 = assay: CellTiter-Glo cell viability assay, GIST882; format: cell-based; details: GIST; for IC50: Homo sapiens, GIST882, 72 hours
Description: (§1) Cell Viability Assay—Cell viability was measured by the CellTiter-Glo® cell viability assay Promega (Madison, Wis.). The CellTiter-Glo® Luminescent Cell Viability Assay is a homogeneous method to determine the number of viable cells in culture based on quantitation of the ATP present, which signals the presence of metabolically active cells. Following treatment, CellTiter-Glo® is added to treatment wells and incubated at 37° C. luminescence values were measured at using a Molecular Devices Spectramax microplate reader.
(§2) Single Agent Studies—Cells were grown to 70% confluency, trypsinized, counted, and seeded in 96 well flat-bottom plates at a final concentration of 2.5×10^3-5×10^3 cells/well (Day 0). Cells were allowed to incubate in growth media for 24 hours. Treatment with the test agents began on Day 1 and continued for 72 hours. At the 72-hour time point, treatment-containing media was removed. Viable cell numbers are quantified by the CellTiter-Glo® cell viability assay as described above. Experiments were run with triplicate concentrations to determine growth inhibitory activity. Results from these studies were used to calculate an IC50 value (concentration of drug that inhibits cell growth by 50 percent of control) for each compound.
(§3) Data Collection—For single agent and combination studies, data from each experiment was collected and expressed as % Cell Growth using the following calculation: % Cell Growth=(ftest/fvehicle)×100
(§4) Where ftest is the luminescence of the tested sample, and fvehicle is the luminescence of the vehicle in which the drug is dissolved. Dose response graphs and IC50 values were generated using Prism 6 software (GraphPad).

MFE296 = assay: CellTiter-Glo cell viability assay, MFE296; format: cell-based; details: Uterine; for IC50: Homo sapiens, MFE-296, MFE296, 72 hours
Description: as §1, §2, §3, §4

AN3CA = assay: CellTiter-Glo cell viability assay, AN3CA; format: cell-based; details: Uterine; for IC50: Homo sapiens, AN3-CA, 72 hours
Description: as §1, §2, §3, §4

MV411 = assay: CellTiter-Glo cell viability assay, MV411; format: cell-based; details: AML; for IC50: Homo sapiens, MV4-11, MV411, 72 hours
Description: as §1, §2, §3, §4

[2] = test system: MM1.S human myeloma cells; assay: Human MM1.S xenograft model, single agent screening; format: in vivo, mice; details: 100 mg/kg daily for 19 days, oral gavage; compared to Compound ID #2 or Compound ID #3
Description: In vivo efficacy studies of Compound ID #1, Compound ID #2, and Compound ID #3 were tested in human MM1.S xenograft model as shown in FIG. 1. […] Group 2 (G2) was treated with Compound ID #1 at 100 mg/kg daily for 19 days. Group 3 (G3) was treated with Compound ID #2 at 100 mg/kg daily for 19 days. Group 4 (G4) was treated with Compound ID #3 at 100 mg/kg daily for 19 days. Vehicle and Compound ID #1, Compound ID #2 and Compound ID #3 were administered orally via oral gavage. Body weights and tumor measurements were collected twice weekly.

[3] = Pharmacokinetic studies in the mouse; format: in vivo; details: for Vd: read-out: Vss; for Vd/F: read-out: Vz/F obs
Description: Plasma samples were collected from healthy mice and analyzed for levels of compound ID #1, ID #2, and ID #3 and reported in Table 5. In brief, compounds were individually and accurately weighed out to produce a stock solution in Dimethyl-sulfoxide (DMSO) at a concentration of 2 mg/mL and stored at −20° C. From the stock solution, a working stock was prepared by diluting it in Methanol-Water 50:50 (v/v) at 20 μg/mL for calibration curve preparation and stored at 4° C. Standards used for quantitation and quality control samples (QC's) were prepared on the same day of sample processing using blank plasma obtained from non-treated mice. For each analyte, standards were prepared through serial dilution of the working stock at concentrations of 0.1, 0.5, 1.0, 10, 50, 100, 500 and 1000 ng/mL; QC's were prepared at intermediate concentrations of 0.75, 7.5, 75 and 750 ng/mL. Plasma samples were stored at −80° C. until ready for analysis and then placed on ice for thawing. An aliquot of 20 μL for samples, standards and QC's, were transferred into a 96-well extraction plate according to a pre-defined layout. Appropriate volume of Methanol-Formic Acid 99.9-0.1 containing internal standard (Verapamil at 25 ng/mL) was added to each well and samples were extracted under vacuum. Eluent was then transferred into a LCMS plate for analysis using a suitable column for separation and MRM detection. Concentration of analytes was calculated based on the calibration curve and analyzed for pharmacokinetic parameters by using Non-compartmental analysis (NCA) using WinNonlin Phoenix software. Parameters such as Cmax, Tmax, half-life, AUC(0-last), AUC(0-∞), volume of distribution (Vss) and clearance (Cl/F) were reported.
The analogs were tested for pharmacokinetic analysis in the mouse with doses of 1 mg/kg for intravenous (IV) route and 5 mg/kg for oral (P0) route. […] Overall exposure following IV dose also favored compound ID #1 with AUCO-∞ 1488.1 hr*ng/mL whereas compound ID #2 and ID #3 were 329.1 and 1193.7 hr*ng/mL, respectively.

[4] = plasma, 1.0 mg/kg IV, read-out: Half-life (converted)
[5] = plasma, 5.0 mg/kg PO, read-out: Half-life (converted)
[6] = plasma, iv, 1 mg/kg, 1.0 mg/kg IV, read-out: AUC0-∞
[7] = plasma, iv, 1 mg/kg, 1.0 mg/kg IV, read-out: Cmax
[8] = plasma, po, 5 mg/kg, 5.0 mg/kg PO, read-out: AUC0-∞
[9] = plasma, po, 5 mg/kg, 5.0 mg/kg PO, read-out: Cmax
[10] = plasma, po, 5 mg/kg, 5 mg/kg oral, read-out: AUC0-∞ (overall exposure following oral doses)

| fraction unbound (% PPB, mouse) | IC50 (MV411) [µM] | AUC0-∞ ([3]; 1.0 mg/kg IV) [ng·h/mL] | AUC % Extrap ([3]; 1.0 mg/kg IV) [%] | Cl/F obs ([3]; 1.0 mg/kg IV) [mL/min/kg] | Rsq (>0.85) ([3]; 1.0 mg/kg IV) | half-life ([3]; 1.0 mg/kg IV) [h] | AUC % Extrap ([3]; 5.0 mg/kg PO) [%] | Cmax ([3]; 5.0 mg/kg PO) [ng/mL] | Rsq (>0.85) ([3]; 5.0 mg/kg PO) | AUC(0-t) ([3]; plasma, 1.0 mg/kg IV) [ng·h/mL] | Tmax ([3]; plasma, 1.0 mg/kg IV) [h] | half-life [3, 4] [h] | Vd ([3]; plasma, 1.0 mg/kg IV) [L/kg] | AUC(0-t) ([3]; plasma, 5.0 mg/kg PO) [ng·h/mL] | CL/F ([3]; plasma, 5.0 mg/kg PO) [mL/min/kg] | Tmax ([3]; plasma, 5.0 mg/kg PO) [h] | Structure (SMILES) | IC50 (GIST882) [µM] | IC50 (MFE296) [µM] | IC50 (AN3CA) [µM] | other results |
| --- | --- | --- | --- | --- | --- | --- | --- | --- | --- | --- | --- | --- | --- | --- | --- | --- | --- | --- | --- | --- | --- |
| 0.0045 | 0.63 | 1488.05 | 0.25 | 11.5 | 0.97 | 3.70 | 0.75 | 757.43 | 0.99 | 1440 | 0.08 | 3.7 | 1.21 | 3220 | 21 | 0.5 | O=C(NO)c1ccc(Nc2nc3ccccc3n2CC2CCCCC2)cc1 [ID #1, 4-((1-(cyclohexylmethyl)-1H-benzo[d]imidazol-2-yl)amino)-N-hydroxybenzamide] | 5.75 | 4.37 | 1.6 | anticancer activity (tumor volume) when combined with pomalidomide/dexamethasone [1]: significantly superior anticancer activity; Improvement ID #1 over ID #3 Percent (GIST882; GIST882): 67.66%; Improvement ID #1 over ID #3 fold (GIST882; GIST882): 3.09 fold; Improvement ID #1 over ID #3 Percent (MFE296; MFE296): 65.29%; Improvement ID #1 over ID #3 fold (MFE296; MFE296): 2.88 fold; Improvement ID #1 over ID #3 Percent (AN3CA): 64.99%; Improvement ID #1 over ID #3 fold (AN3CA): 2.86 fold; Improvement ID #1 over ID #3 Percent (MV411; MV411): 77.09%; Improvement ID #1 over ID #3 fold (MV411; MV411): 4.37 fold; anticancer activity (tumor volume) [2]: significantly superior anticancer activity; bioavailability ([3]; plasma, 5.0 mg/kg PO): 53.4%; half-life [3, 5]: 3.39 h; Vd/F ([3]; plasma, 5.0 mg/kg PO): 6.16 L/kg; AUC(0-inf) [3, 6]: 1490 ng·h/mL; Cmax [3, 7]: 1290 ng/mL; AUC(0-inf) [3, 8]: 3970 ng·h/mL; Cmax [3, 9]: 757 ng/mL; AUC(0-inf) [3, 10]: 3970 ng·h/mL |
| 0.0052 | 2.75 | 1193.68 | 0.16 | 14 | 0.92 | 2.37 | 0.38 | 348.57 | 1.00 | 1190 | 0.08 | 2.37 | 1.96 | 1640 | 50.5 | 0.25 | O=C(NO)c1ccc(Nc2nc3ccccc3n2C2CCCCCC2)cc1 [ID #3, 4-((1-cycloheptyl-1H-benzo[d]imidazol-2-yl)amino)-N-hydroxybenzamide] | 17.8 | 12.6 | 4.57 | bioavailability ([3]; plasma, 5.0 mg/kg PO): 27.6%; half-life [3, 5]: 2.99 h; Vd/F ([3]; plasma, 5.0 mg/kg PO): 13.1 L/kg; AUC(0-inf) [3, 6]: 1190 ng·h/mL; Cmax [3, 7]: 830 ng/mL; AUC(0-inf) [3, 8]: 1650 ng·h/mL; Cmax [3, 9]: 349 ng/mL; AUC(0-inf) [3, 10]: 1650 ng·h/mL |
